*1 amine or outer side, *2 acyl side, *3 side chain or, on linkers, in order; H or OH if unused. Where a SMILES comes first, the peptide text is derived from it. Bridges are numbered along the chain shown (N, C = ends). Side-chain parts run from the residue outwards. [ ]: non-standard residue; d: D form. The star is where a group is joined. ξ: configuration not given here. pTerphenylCO(4''-OnC5H11) = CCCCCOc1ccc(-c2ccc(-c3ccc(C(=O)*)cc3)cc2)cc1; Orn(4R-OH,5R-OH) = O=C([C@H](C[C@@H](O)[C@@H](O)N[*:3])N[*:1])[*:2]; hTyr(3S-OH,4S-OH) = N[C@H](C(=O)O)[C@H](O)[C@@H](O)c1ccc(O)cc1; Orn(Nα,Nα-(2-aminoethyl)2) = NCCC[C@@H](C(=O)*)N(CCN)CCN; X2 = NCCC[C@H](N)C(=O)N(CCCN)CCC[C@H](N[*:1])C(=O)[*:2]; NαBis(2-aminoethyl)dOrn = NCCC[C@H](C(=O)*)N(CCN)CCN; Pro(3S-OH,4S-Me) = C[C@H]1CN[C@H](C(=O)O)[C@H]1O; X7 = CCCCCCCCCCCCC(C)[C@H](CC(=O)[*:1])O[*:2]; X4 = NCCCN(CCC[C@H](N[*:1])C(=O)[*:2])[*:3]; X3 = CCCCCCCCCCCCC[C@H](CC(=O)[*:1])O[*:2]; X6 = NCCN(CCC[C@H](N[*:1])C(=O)[*:2])[*:3]; ξGln(3R-OH) = NC(=O)C[C@@H](O)C(N)C(=O)O; Dopa = N[C@@H](Cc1ccc(O)c(O)c1)C(=O)O; Pro(3S-OH) = O=C(O)[C@H]1NCC[C@@H]1O; X1 = NC(=O)CC(O)C(N[*:1])C(=O)[*:2]; d(aThr) = C[C@@H](O)[C@@H](N)C(=O)O; Hyp = O=C(O)[C@@H]1C[C@@H](O)CN1; X5 = NCCCN[C@@H](CCCN)C(=O)*; dOrn = NCCC[C@@H](N)C(=O)O; Orn = NCCC[C@H](N)C(=O)O
Assays:
mouse hepatocytes = test: In vitro hepatotoxicity test; format: cell-based; conditions: mouse hepatocyte monolayers, exposed 1 day, morphological evaluation
From the text: The mouse hepatocytes were isolated by a collagenase digestion and cultured in microtest plates. The hepatocyte monolayers were exposed to the test Aerothricins in the culture system for 1 day. After the culture period, the hepatocytes were observed under a microscope and evaluated morphologically. The degree of the morphological alteration (degeneration) of the hepatocytes by the test Aerothricins were compared with WF11243 and LY303366.

[1] = test system: Scedosporium apiospermum CF1077; test: In vitro antifungal activity, broth micro-dilution IC80; format: cell-based; conditions: YNB medium with 0.2% agarose, 1-2 days at 35° C.
Procedure: (§1) The in vitro antifungal activities of the representative Aerothricins of the present study were evaluated by determining the 80% inhibitory concentration (IC80), which was calculated as the lowest concentration of an antifungal to inhibit the growth of fungus to 20% turbidity compared with the drug-free control growth spectrophotometrically.
(§2) The IC80 values were determined by the broth micro-dilution procedure based on NCCLS Approved Standard with the following minor modifications (National Committee for Clinical Laboratory Standards. (1997) Reference method for broth dilution antifungal susceptibility testing for yeasts. Approved standard. Document M27-A). Yeast Nitrogen Base (YNB; Difco Lab.) supplemented with 1% glucose and 0.25% K2HPO4 was used as testing medium for yeasts, the same medium solidified with 0.2% low melting point agarose (BRL) was used for filamentous fungi. Inoculum size was 1-3×10^3 cells/ml, and incubation was performed for 1-2 days at 35° C.

Candida albicans CY1002 = test: as above; format: cell-based; conditions: YNB medium, 1-2 days at 35° C.
Procedure: as §1, §2

[2] = test system: Aspegillus fumigatus CF1003; test: as above; format: cell-based, Aspergillus fumigatus; conditions: YNB medium with 0.2% agarose, 1-2 days at 35° C.
Procedure: as §1, §2

A. fumigatus = test: Murine pulmonary aspergillosis, survival; format: in vivo, mouse; conditions: cortisone-treated ICR male mice; once daily for 4 days; survival on day 14
Procedure: Murine pulmonary aspergillosis was created in cortisone-treated (250 mg/kg, twice sub-cutaneous treatments on 3 days before and on the infection day) ICR male mouse. Conidia of A. fumigatus (2.5×10^5 conidia/mouse) were infected intratracheally to these mice, and treatments were carried out once daily for 4 days. The efficacy of each drug was determined from the survival number, and 50% of effective dose (ED50) was calculated from the survival number at each dose on the 14 days.

[3] = Toxicity on repeated i.v. administration to mice; format: in vivo; conditions: 5 mg/kg and 30 mg/kg once daily i.v. for 2 weeks
Candida albicans = test: Murine systemic candidiasis, survival; format: in vivo, mouse; conditions: Crj: CD-1 (ICR) mice; i.v. once just after infection; survival on day 7
Procedure: Mice of a conventional immunocompetent mouse strain, Crj: CD- 1 (ICR) were used for experimental infection models of systemic candidiasis. 4 weeks old Crj: CD-1 (ICR) mice were used for systemic candidiasis by injecting Candida albicans 5×10^6 conidia/mouse via the tail vein. Test compounds were intravenously (i.v.) given once just after infection for systemic candidiasis. 50% of effective dose (ED50) values were calculated from the survival number at each dose on day 7.

Solubility = conditions: solvents in which soluble

For `CCCCCOc1ccc(-c2ccc(-c3ccc(C(=O)N[C@H]4C[C@@H](O)[C@@H](O)NC(=O)[C@@H]5[C@@H](O)[C@@H](C)CN5C(=O)[C@H]([C@@H](C)O)NC(=O)[C@H]([C@H](O)[C@@H](O)c5ccc(O)cc5)NC(=O)[C@@H]5C[C@@H](O)CN5C(=O)[C@H]([C@@H](C)O)NC4=O)cc3)cc2)cc1` [LY303366, reference compound] ({pTerphenylCO(4''-OnC5H11)}-[Orn(4R-OH,5R-OH)]T[Hyp][hTyr(3S-OH,4S-OH)]T[Pro(3S-OH,4S-Me)]; lactam 1-C), the Cytotoxicity to hepatocyte (mouse hepatocytes) was 10 µg/mL.
With `CCCCCCCCCCCCC[C@@H]1CC(=O)N[C@H]([C@@H](C)O)C(=O)N[C@H](C)C(=O)N[C@@H](Cc2ccc(O)cc2)C(=O)N[C@@H](C(C)C)C(=O)N2C[C@H](O)C[C@H]2C(=O)N[C@H]([C@@H](C)O)C(=O)N[C@@H]([C@@H](C)O)C(=O)N2CC[C@H](O)[C@H]2C(=O)NC(C(O)CC(N)=O)C(=O)NCC(=O)N[C@H]([C@@H](C)O)C(=O)N[C@@H](CCCN(CCCN)C(=O)[C@H](CCCN)NCCCN)C(=O)O1` (stereo partly drawn) [Aerothricin 136] ([d(aThr)][dA]YV[Hyp][d(aThr)]T[Pro(3S-OH)][X1]G[d(aThr)][X4](X5); linker N-C via X3) the “In vitro Antifungal activity, IC80” value [1] was 0.34 µg/mL, the “In vitro Antifungal activity, IC80” value (Candida albicans CY1002) was 0.33 µg/mL and the “In vitro Antifungal activity, IC80” value [2] was 0.38 µg/mL.
For `CCCCCCCCCCCCC[C@@H]1CC(=O)N[C@H]([C@@H](C)O)C(=O)N[C@H](C)C(=O)N[C@@H](Cc2ccc(O)cc2)C(=O)N[C@@H](C(C)C)C(=O)N2C[C@H](O)C[C@H]2C(=O)N[C@H]([C@@H](C)O)C(=O)N[C@@H]([C@@H](C)O)C(=O)N2CC[C@H](O)[C@H]2C(=O)NC(C(O)CC(N)=O)C(=O)NCC(=O)N[C@H]([C@@H](C)O)C(=O)N[C@@H](CCCN(CCN)C(=O)[C@H](CCCN)N(CCN)CCN)C(=O)O1` (stereo partly drawn) [Aerothricin 137] ([d(aThr)][dA]YV[Hyp][d(aThr)]T[Pro(3S-OH)][X1]G[d(aThr)][X6](Orn(Nα,Nα-(2-aminoethyl)2)); linker N-C via X3), the “In vivo antifungal activity against pulmonary aspergillosis in mice, ED50 on day 14” value (“In vivo antifungal activity … on day 14” for short) (A. fumigatus) was 5.2 mg/kg.
For `CCCCCCCCCCCCC[C@@H]1CC(=O)N[C@H]([C@@H](C)O)C(=O)N[C@H](C)C(=O)N[C@@H](Cc2ccc(O)cc2)C(=O)N[C@@H](C(C)C)C(=O)N2C[C@H](O)C[C@H]2C(=O)N[C@H]([C@@H](C)O)C(=O)N[C@@H]([C@@H](C)O)C(=O)N2CC[C@H](O)[C@H]2C(=O)NC(C(O)CC(N)=O)C(=O)NCC(=O)N[C@H]([C@@H](C)O)C(=O)N[C@@H](CCCN(CCCN)C(=O)[C@@H](N)CCCN)C(=O)O1` (stereo partly drawn) [Aerothricin 132] ([d(aThr)][dA]YV[Hyp][d(aThr)]T[Pro(3S-OH)][X1]G[d(aThr)][X2]; linker N-C via X3), the “In vitro Antifungal activity, IC80” value [1] was 0.38 µg/mL, the “In vitro Antifungal activity, IC80” value (Candida albicans CY1002) was 0.28 µg/mL and the “In vitro Antifungal activity, IC80” value [2] was 2.9 µg/mL. The “In vivo antifungal activity … on day 14” value (A. fumigatus) was 5.2 mg/kg, the acute toxicity [3] was “no acute toxicity” and the “In vivo antifungal activity against systemic candidiasis in mice, ED50 on day 7” value (“In vivo antifungal activity … on day 7” below) (Candida albicans) was 0.43 mg/kg. The Cytotoxicity to hepatocyte (mouse hepatocytes) was greater than 100 µg/mL.
In the case of `CCCCCCCCCCCCC[C@@H]1CC(=O)N[C@H]([C@@H](C)O)C(=O)N[C@H](C)C(=O)N[C@@H](Cc2ccc(O)cc2)C(=O)N[C@@H](C(C)C)C(=O)N2C[C@H](O)C[C@H]2C(=O)N[C@H]([C@@H](C)O)C(=O)N[C@@H]([C@@H](C)O)C(=O)N2CC[C@H](O)[C@H]2C(=O)NC(C(O)CC(N)=O)C(=O)NCC(=O)N[C@H]([C@@H](C)O)C(=O)N[C@@H](CCCN(CCCN)C(=O)[C@H](CCCN)N(CCN)CCN)C(=O)O1` (stereo partly drawn) [Aerothricin 134] ([d(aThr)][dA]YV[Hyp][d(aThr)]T[Pro(3S-OH)][X1]G[d(aThr)][X4](Orn(Nα,Nα-(2-aminoethyl)2)); linker N-C via X3), the “In vitro Antifungal activity, IC80” value [1] is reported as 0.37 µg/mL, the “In vitro Antifungal activity, IC80” value (Candida albicans CY1002) is reported as 0.37 µg/mL and the “In vitro Antifungal activity, IC80” value [2] is reported as 0.58 µg/mL. For the same compound, the “In vivo antifungal activity … on day 14” value (A. fumigatus) was 5.8 mg/kg and the Cytotoxicity to hepatocyte (mouse hepatocytes) was greater than 100 µg/mL.
In the case of `CCCCCCCCCCCCC[C@@H]1CC(=O)N[C@H]([C@@H](C)O)C(=O)N[C@H](C)C(=O)N[C@@H](Cc2ccc(O)cc2)C(=O)N[C@@H](C(C)C)C(=O)N2C[C@H](O)C[C@H]2C(=O)N[C@H]([C@@H](C)O)C(=O)N[C@@H]([C@@H](C)O)C(=O)N2CC[C@H](O)[C@H]2C(=O)NC(C(O)CC(N)=O)C(=O)NCC(=O)N[C@H]([C@@H](C)O)C(=O)N[C@@H](CCCN(CCCN)C(=O)[C@@H](CCCN)N(CCN)CCN)C(=O)O1` (stereo partly drawn) [Aerothricin 135] ([d(aThr)][dA]YV[Hyp][d(aThr)]T[Pro(3S-OH)][X1]G[d(aThr)][X4](NαBis(2-aminoethyl)dOrn); linker N-C via X3), the “In vitro Antifungal activity, IC80” value [1] is reported as 0.35 µg/mL, the “In vitro Antifungal activity, IC80” value (Candida albicans CY1002) is reported as 0.41 µg/mL and the “In vitro Antifungal activity, IC80” value [2] is reported as 0.37 µg/mL. The “In vivo antifungal activity … on day 7” value (Candida albicans) was 0.35 mg/kg and the Cytotoxicity to hepatocyte (mouse hepatocytes) was greater than 100 µg/mL.
With `CCCCCCCCCCCCC[C@@H]1CC(=O)N[C@H]([C@@H](C)O)C(=O)N[C@H](C)C(=O)N[C@@H](Cc2ccc(O)cc2)C(=O)N[C@@H](C(C)C)C(=O)N2C[C@H](O)C[C@H]2C(=O)N[C@H]([C@@H](C)O)C(=O)N[C@@H]([C@@H](C)O)C(=O)N2CC[C@H](O)[C@H]2C(=O)NC([C@H](O)CC(N)=O)C(=O)NCC(=O)N[C@H]([C@@H](C)O)C(=O)N[C@@H](CCCNC(=O)[C@@H](CCCN)NC(=O)[C@@H](N)CCCN)C(=O)O1` (stereo partly drawn) [Aerothricin 133] ([d(aThr)][dA]YV[Hyp][d(aThr)]T[Pro(3S-OH)][ξGln(3R-OH)]G[d(aThr)][Orn]([dOrn-Orn]); linker N-C via X3) the “In vivo antifungal activity … on day 7” value (Candida albicans) was 0.35 mg/kg.
In the case of `CCCCCCCCCCCCC[C@@H]1CC(=O)N[C@H]([C@@H](C)O)C(=O)N[C@H](C)C(=O)N[C@@H](Cc2ccc(O)c(O)c2)C(=O)N[C@@H](C(C)C)C(=O)N2C[C@H](O)C[C@H]2C(=O)N[C@H]([C@@H](C)O)C(=O)N[C@@H]([C@@H](C)O)C(=O)N2CC[C@H](O)[C@H]2C(=O)NC(C(O)CC(N)=O)C(=O)NCC(=O)N[C@H]([C@@H](C)O)C(=O)N[C@@H](CCCN)C(=O)O1` (stereo partly drawn) [Aerothricin 2] ([d(aThr)][dA][Dopa]V[Hyp][d(aThr)]T[Pro(3S-OH)][X1]G[d(aThr)][Orn]; linker N-C via X3), the Solubility (Solubility) is reported as “Soluble: water, methanol, dimethylsulfoxide”.
With `CCCCCCCCCCCCC(C)[C@@H]1CC(=O)N[C@H]([C@@H](C)O)C(=O)N[C@H](C)C(=O)N[C@@H](Cc2ccc(O)cc2)C(=O)N[C@@H](C(C)C)C(=O)N2C[C@H](O)C[C@H]2C(=O)N[C@H]([C@@H](C)O)C(=O)N[C@@H]([C@@H](C)O)C(=O)N2CC[C@H](O)[C@H]2C(=O)NC(C(O)CC(N)=O)C(=O)NCC(=O)N[C@H]([C@@H](C)O)C(=O)N[C@@H](CCCN)C(=O)O1` (stereo partly drawn) [Aerothricin 1] ([d(aThr)][dA]YV[Hyp][d(aThr)]T[Pro(3S-OH)][X1]G[d(aThr)][Orn]; linker N-C via X7) the Solubility (Solubility) was “Soluble: water, methanol, dimethylsulfoxide”.

Source: patent US6849709B2, “Aerothricin derivatives” (Basilea Pharmaceutica AG, priority 2000, dated 2005)
